Assay results as given in patent publication EP4524128A1, “BENZOPHENONE CROSSLINKERS” (Hemoteq AG, priority 2023, dated 2025).
Entries after “also recorded” stand apart in the source; their conditions may differ.

Test: Solubility in solvents and monomer
Type: physicochemical

Structure (SMILES) | Solubility in N-vinylpyrrolidone | Solubility in THF | Solubility in acetone (acetone) | Solubility in chloroform (chloroform) | Solubility in deionized water (deionized water) | Solubility in ethanol (ethanol) | Solubility in ethyl acetate (ethyl acetate) | Solubility in n-heptane (n-heptane)
C=C(C)C(=O)NCCCNC(=O)c1ccc(C(=O)c2ccccc2)cc1 [APMA-BBC, N-[3-(4-benzoylbenzamido)propyl]methacrylamide] | readily soluble; also recorded: Freely soluble | Freely soluble | – | – | – | – | – | –
C=C(C)C(=O)OCCOC(=O)c1ccc(C(=O)c2ccccc2)cc1 [HEMA-BBA, 1-(4-benzoylbenzoic acid)-2-methaacrylic acid-glycolester] | only slowly soluble | moderately soluble | insoluble | highly soluble | insoluble | insoluble | insoluble | slightly to sparingly soluble
